Data from ChEMBL document CHEMBL3612067, “Synthesis of a series of unsaturated ketone derivatives as selective and reversible monoamine oxidase inhibitors” (Bioorg Med Chem, 2015).

Assays:
[1] = biological target: T1, Amine oxidase [flavin-containing] B (Homo sapiens, UniProt P27338)
T1 sequence (P27338 whole entry): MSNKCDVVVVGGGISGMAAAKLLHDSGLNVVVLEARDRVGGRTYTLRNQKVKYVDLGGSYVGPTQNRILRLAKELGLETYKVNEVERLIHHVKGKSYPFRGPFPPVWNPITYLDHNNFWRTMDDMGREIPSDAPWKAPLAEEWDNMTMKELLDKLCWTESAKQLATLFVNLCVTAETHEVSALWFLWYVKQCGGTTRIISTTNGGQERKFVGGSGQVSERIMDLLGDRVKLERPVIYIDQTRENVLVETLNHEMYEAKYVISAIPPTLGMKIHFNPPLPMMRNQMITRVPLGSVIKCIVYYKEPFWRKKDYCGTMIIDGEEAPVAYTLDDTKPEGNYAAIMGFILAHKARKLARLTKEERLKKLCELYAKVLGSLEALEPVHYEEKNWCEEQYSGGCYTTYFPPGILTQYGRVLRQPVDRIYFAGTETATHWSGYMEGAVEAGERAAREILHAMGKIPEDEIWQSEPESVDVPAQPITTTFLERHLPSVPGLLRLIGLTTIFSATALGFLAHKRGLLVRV

[2] = biological target: T2, Amine oxidase [flavin-containing] A (Homo sapiens, UniProt P21397)
T2 sequence (P21397 whole entry): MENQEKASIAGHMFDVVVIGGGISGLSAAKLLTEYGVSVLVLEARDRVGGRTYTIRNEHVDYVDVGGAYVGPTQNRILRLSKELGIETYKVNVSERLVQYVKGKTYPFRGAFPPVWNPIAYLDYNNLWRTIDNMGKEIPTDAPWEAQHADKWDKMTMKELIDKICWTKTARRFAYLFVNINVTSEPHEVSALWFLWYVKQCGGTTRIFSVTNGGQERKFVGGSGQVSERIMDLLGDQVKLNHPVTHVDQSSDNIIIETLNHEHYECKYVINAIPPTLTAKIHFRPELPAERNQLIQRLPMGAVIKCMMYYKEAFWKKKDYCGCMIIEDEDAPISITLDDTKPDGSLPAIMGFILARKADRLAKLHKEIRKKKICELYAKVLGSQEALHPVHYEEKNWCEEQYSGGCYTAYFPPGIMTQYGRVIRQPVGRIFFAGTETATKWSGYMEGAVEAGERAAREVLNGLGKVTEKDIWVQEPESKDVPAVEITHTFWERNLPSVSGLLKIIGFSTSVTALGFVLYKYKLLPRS

[3] = biological target: T1, Amine oxidase [flavin-containing] B; assay: Reversible inhibition of recombinant human MAOB using benzylamine as substrate at 2 uM measured after 3 times washout of drug by Amplex red based spectrophotometric analysis
[4] = Effect on H2O2 scavenging activity of the compound up to 50 uM after 1.5 hrs by Amplex red/horseradish peroxidase detection method; format: physicochemical
[5] = biological target: T1, Amine oxidase [flavin-containing] B; settings: 0.5 h, read-out: INH
[6] = Effect on H2O2 scavenging activity of the compound after 1.5 hrs by Amplex red/horseradish peroxidase detection method; format: physicochemical

Row | SMILES | IC50 [1] [µM] | IC50 [2] [µM] | inhibition (INH) [3] | Activity [4] | inhibition at 2 µM [5] [%] | Activity [6]
1 | COc1ccc(C(=O)/C=C/c2ccc(C(F)(F)F)cc2)cc1 | 0.199 | > 100 | – | – | – | –
2 | O=C(/C=C/c1cccc(C(F)(F)F)c1)Nc1cccc(F)c1 | 4.89 | > 100 | – | – | – | –
3 | O=C(/C=C/c1ccccc1Cl)Nc1cccc(O)c1 | 5.21 | > 100 | – | – | – | –
4 | COc1ccc(C(=O)/C=C/c2ccccc2)cc1 [4'-METHOXYCHALCONE] | 0.471 | > 100 | – | – | – | –
5 | COc1cccc(C(=O)/C=C/c2ccccc2C(F)(F)F)c1 | 2.12 | > 100 | – | – | – | –
6 | O=C(/C=C/c1ccccc1C(F)(F)F)c1ccc(O)cc1 | 0.057 | > 100 | – | – | – | –
7 | COc1ccc(NC(=O)/C=C/c2ccccc2C(F)(F)F)cc1 | > 10 | > 100 | – | – | – | –
8 | COc1ccc(NC(=O)/C=C/c2ccccc2Cl)cc1 | > 10 | > 100 | – | – | – | –
9 | COc1ccc(C(=O)/C=C/c2cccc(C(F)(F)F)c2)cc1 | 0.145 | > 100 | – | – | – | –
10 | COc1ccc(C(=O)/C=C/c2cccc(OC)c2)cc1 | 1.4 | > 100 | – | – | – | –
11 | COc1ccc(/C=C/C(=O)c2ccc(OC)cc2)cc1 [4,4'-DIMETHOXYCHALCONE] | > 10 | > 100 | – | – | – | –
12 | COc1ccc(C(=O)/C=C/c2ccccc2OC)cc1 | 0.419 | > 100 | – | – | – | –
13 | COc1cccc(C(=O)/C=C/c2ccccc2)c1 | 0.793 | > 100 | – | – | – | –
14 | O=C(/C=C/c1ccccc1Cl)Nc1ccccc1 | 2.82 | > 100 | – | – | – | –
15 | O=C(/C=C/c1ccccc1C(F)(F)F)Nc1cccc(O)c1 | 5.98 | > 100 | – | – | – | –
16 | COc1ccc(C(=O)/C=C/c2ccccc2Cl)cc1 | 0.069 | > 100 | – | – | – | –
17 | O=C(/C=C/c1ccccc1C(F)(F)F)Oc1ccccc1 | 5.88 | > 100 | – | – | – | –

Row | SMILES | IC50 [1] [µM] | IC50 [2] [µM] | inhibition (INH) [3] | Activity [4] | inhibition at 2 µM [5] [%] | Activity [6]
18 | O=C(/C=C/c1ccc(C(F)(F)F)cc1)Nc1ccccc1F | 0.58 | > 100 | – | – | – | –
19 | COc1ccc(C(=O)/C=C/c2ccccc2C(F)(F)F)cc1 | 0.016 | > 100 | Active | Not Active | > 80 | –
20 | COc1ccccc1C(=O)/C=C/c1ccccc1C(F)(F)F | 0.253 | > 100 | – | – | – | –
21 | COc1ccccc1/C=C/C(=O)c1ccc(O)cc1 | 0.624 | > 100 | – | – | – | –
22 | O=C(/C=C/c1ccccc1C(F)(F)F)Nc1cccc(F)c1 | 3.37 | > 100 | – | – | – | –
23 | O=C(/C=C/c1ccc(C(F)(F)F)cc1)Nc1cccc(F)c1 | 0.283 | > 100 | – | – | – | –
24 | COc1ccccc1C(=O)/C=C/c1ccccc1 | > 10 | > 100 | – | – | – | –
25 | COc1ccc(OC(=O)/C=C/c2ccccc2C(F)(F)F)cc1 | 2.59 | > 100 | – | – | – | –
26 | O=C(O[C@@H]1Cc2c(O)cc(O)cc2O[C@@H]1c1cc(O)c(O)c(O)c1)c1cc(O)c(O)c(O)c1 [EPIGALOCATECHIN GALLATE] | – | – | – | – | – | Dose-dependent effect
27 | COc1ccc(C(=O)/C=C/c2ccccc2F)cc1 | 0.056 | > 100 | Active | Not Active | > 80 | –
28 | COc1ccc(OC(=O)/C=C/c2ccccc2Cl)cc1 | 0.937 | > 100 | – | – | – | –
29 | O=C(/C=C/c1ccccc1C(F)(F)F)Nc1ccccc1 | 8.39 | > 100 | – | – | – | –
30 | C[C@H](NCc1ccc(OCc2cccc(F)c2)cc1)C(N)=O [SAFINAMIDE] | – | – | Not Active | – | – | –
31 | O=C(/C=C/c1ccc(C(F)(F)F)cc1)Nc1ccc(F)cc1 | 0.223 | > 100 | – | – | – | –
32 | O=C(/C=C/c1ccccc1C(F)(F)F)Nc1ccc(O)cc1 | > 10 | 9.22 | – | – | – | –
33 | O=C(/C=C/c1ccccc1Cl)Nc1ccc(O)cc1 | > 10 | 16.7 | – | – | – | –
